In patent publication US12428389B2, “Diarylamide compound and application thereof” (Sunshine Lake Pharma Co., Ltd., priority 2019, dated 2025):
Where two headings read alike, the source gives them in different places.

Columns and labels:
UT-B [1] = molecular target: T1, UT-B (Rattus norvegicus, UniProt P97689); assay: erythrocyte lysis model, rat erythrocytes; assay type: cell-based, rats; conditions: concentration when the erythrocyte lysis rate of rats was 50%; read-out: IC50 rats
T1 construct: endogenous in cells; host or cells: erythrocytes of SD rats
T1 sequence (P97689 1-384): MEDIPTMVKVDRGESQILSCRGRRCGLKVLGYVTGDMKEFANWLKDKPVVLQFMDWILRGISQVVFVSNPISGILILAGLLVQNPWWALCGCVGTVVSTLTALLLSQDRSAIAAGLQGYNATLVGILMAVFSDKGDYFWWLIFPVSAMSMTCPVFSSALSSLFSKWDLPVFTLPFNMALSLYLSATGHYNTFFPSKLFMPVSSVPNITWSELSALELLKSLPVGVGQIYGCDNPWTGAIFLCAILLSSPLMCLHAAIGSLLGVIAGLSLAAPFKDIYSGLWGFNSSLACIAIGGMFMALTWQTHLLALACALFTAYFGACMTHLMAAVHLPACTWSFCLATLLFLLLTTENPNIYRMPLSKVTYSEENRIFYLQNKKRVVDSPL
Description: (§1) Erythrocyte lysis rate was calculated:
(§2) The formula for calculating the lysis rate percentage of erythrocytes, wherein Atest was the absorbance value of the test well, Aneg was the absorbance value of the negative control well, and Apos was the absorbance value of the positive control well. Erythrocyte lysis rate was calculated by measuring absorption at a wavelength of 710 nm.
(§3) The erythrocytes of three species of human, rats (SD rats) and mice (C57 mice) were taken, and urea transporter inhibitors were preliminarily screened from the above screening compound library by using the erythrocyte urea transporter inhibitor screening model.

human UT-B = molecular target: T2, human UT-B (Homo sapiens, UniProt Q13336); assay: erythrocyte lysis model, human erythrocytes; assay type: cell-based
T2 construct: endogenous in cells; host or cells: human erythrocytes
T2 sequence (Q13336 1-389): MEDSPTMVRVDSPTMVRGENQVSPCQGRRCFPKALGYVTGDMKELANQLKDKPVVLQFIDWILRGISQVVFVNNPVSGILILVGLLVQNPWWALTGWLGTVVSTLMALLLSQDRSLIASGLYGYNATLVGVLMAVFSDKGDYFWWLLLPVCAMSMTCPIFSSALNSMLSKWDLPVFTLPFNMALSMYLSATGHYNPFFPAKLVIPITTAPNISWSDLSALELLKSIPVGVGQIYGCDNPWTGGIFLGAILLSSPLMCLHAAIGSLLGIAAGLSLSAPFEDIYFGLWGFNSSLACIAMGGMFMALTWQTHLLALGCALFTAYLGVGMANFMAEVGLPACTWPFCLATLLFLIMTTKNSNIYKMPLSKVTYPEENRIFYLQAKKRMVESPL
Description: as §1, §2, §3

UT-B [2] = molecular target: T3, UT-B (Mus musculus, UniProt Q8VHL0); assay: erythrocyte lysis model, mouse erythrocytes; assay type: cell-based; conditions: concentration when the erythrocyte lysis rate of mice was 50%
T3 construct: endogenous in cells; host or cells: erythrocytes of C57 mice
T3 sequence (Q8VHL0 1-384): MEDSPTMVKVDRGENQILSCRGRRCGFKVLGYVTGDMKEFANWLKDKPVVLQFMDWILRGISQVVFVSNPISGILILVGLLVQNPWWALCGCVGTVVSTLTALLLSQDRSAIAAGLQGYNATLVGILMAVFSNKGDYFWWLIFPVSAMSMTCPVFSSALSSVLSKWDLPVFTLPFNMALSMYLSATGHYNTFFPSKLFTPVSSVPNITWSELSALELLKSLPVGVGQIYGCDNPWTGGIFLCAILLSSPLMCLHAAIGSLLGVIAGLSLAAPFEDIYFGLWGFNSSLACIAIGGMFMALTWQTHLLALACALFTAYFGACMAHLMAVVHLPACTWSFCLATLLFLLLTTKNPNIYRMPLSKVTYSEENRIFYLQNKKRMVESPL
Description: as §1, §2, §3

[3] = class of the IC50 to human UT-B, read-out: Activity level
[4] = concentration when the erythrocyte lysis rate of human was 50%, read-out: IC50 human

Compound | IC50 (UT-B [1]) [µM] | IC50 (human UT-B; [3]) [µM] | IC50 (human UT-B; [4]) [µM] | IC50 (UT-B [2]) [µM]
O=C(Nc1cccc(F)c1)c1ccc([N+](=O)[O-])o1 [Example 36, N-(3-fluorophenyl)-5-nitrofuran-2-carboxamide] | 1.85 | < 10 | 3.09 | 9.28
O=C(Nc1ccon1)c1ccc([N+](=O)[O-])o1 [Example 19, N-(isoxazol-3-yl)-5-nitrofuran-2-carboxamide] | 30 | < 10 | 3.63 | 10.2
CC(=O)c1cccc(NC(=O)c2ccc([N+](=O)[O-])o2)c1 [Example 46, N-(3-acetylphenyl)-5-nitrofuran-2-carboxamide] | 0.49 | < 10 | 1.84 | 2.46
N#Cc1cccc(NC(=O)c2ccc([N+](=O)[O-])o2)c1 [Example 40, N-(3-cyanophenyl)-5-nitrofuran-2-carboxamide] | 2.77 | < 10 | 1 | 7.85
O=C(Nc1ccc2ncccc2c1)c1ccc([N+](=O)[O-])o1 [Example 16, N-(quinolin-6-yl)-5-nitrofuran-2-carboxamide] | 5.49 | < 10 | 1.64 | 5.08
COc1cccc(NC(=O)c2ccc([N+](=O)[O-])o2)c1 [Example 30, N-(3-methoxyphenyl)-5-nitrofuran-2-carboxamide] | 1.11 | < 10 | 2.27 | 9.65
NC(=O)c1cccc(NC(=O)c2ccc([N+](=O)[O-])o2)c1 [Example 44, N-(3-carbamoylphenyl)-5-nitrofuran-2-carboxamide] | 0.17 | < 10 | 0.42 | 0.5
Cn1cc(NC(=O)c2ccc([N+](=O)[O-])o2)cn1 [Example 22, N-(1-methyl-1H-pyrazol-4-yl)-5-nitrofuran-2-carboxamide] | 9.64 | 10 to 20 | 15.8 | 33.2
Cc1cccc(NC(=O)c2ccc([N+](=O)[O-])o2)c1 [Example 28, N-(3-methylphenyl)-5-nitrofuran-2-carboxamide] | 3.91 | < 10 | 3.66 | 30.5
O=C(Nc1ccc(CCO)cc1)c1ccc([N+](=O)[O-])o1 [Example 50, N-(4-(2-hydroxyethyl)phenyl)-5-nitrofuran-2-carboxamide] | 8.37 | < 10 | 5.3 | 10.2

Now from value to compound:

IC50 (UT-B [1]) [µM] | IC50 (human UT-B; [3]) [µM] | IC50 (human UT-B; [4]) [µM] | IC50 (UT-B [2]) [µM] | Compound
1.41 | < 10 | 3.31 | 4.32 | O=C(NCCCN1CCOCC1)c1cccc(NC(=O)c2ccc([N+](=O)[O-])o2)c1 [Example 62, N-(3-((3-morpholinylpropyl)carbamoyl)phenyl)-5-nitrofuran-2-carboxamide]
0.32 | < 10 | 1.08 | 2.79 | CNC(=O)c1cc(C)cc(NC(=O)c2ccc([N+](=O)[O-])o2)c1 [Example 64, N-(5-methyl-3-methylcarbamoylphenyl)-5-nitrofuran-2-carboxamide]
1.1 | < 10 | 0.82 | 4.94 | C#Cc1cccc(NC(=O)c2ccc([N+](=O)[O-])o2)c1 [Example 79, N-3-(ethynylphenyl)-5-nitrofuran-2-carboxamide]
0.49 | < 10 | 0.94 | 1.69 | NCc1ccc(NC(=O)c2ccc([N+](=O)[O-])o2)cc1 [Example 51, N-(4-aminomethylphenyl)-5-nitrofuran-2-carboxamide]
2.96 | 10 to 20 | 12.3 | 5.16 | CN1C(=O)c2ccc(NC(=O)c3ccc([N+](=O)[O-])o3)cc2C1=O [Example 69, N-(2-methyl-1,3-dihydro-1,3-dioxo-2H-isoindol-5-yl)-5-nitrofuran-2-carboxamide]
0.09 | < 10 | 1.42 | 0.5 | CC(C)CNC(=O)c1cccc(NC(=O)c2ccc([N+](=O)[O-])o2)c1 [Example 57, N-(3-(isobutylcarbamoyl)phenyl)-5-nitrofuran-2-carboxamide]
0.26 | < 10 | 0.49 | 1.02 | O=C(NCc1ccccc1)c1cccc(NC(=O)c2ccc([N+](=O)[O-])o2)c1 [Example 59, N-(3-(benzylcarbamoyl)phenyl)-5-nitrofuran-2-carboxamide]
2.87 | < 10 | 3.05 | 7.38 | O=C(CN1CCOCC1)Nc1ccc(NC(=O)c2ccc([N+](=O)[O-])o2)cc1 [Example 72, N-(4-(2-morpholinyl)acetamidophenyl)-5-nitrofuran-2-carboxamide]
1.76 | < 10 | 3.94 | 9.7 | CC(C)NC(=O)c1cccc(NC(=O)c2ccc([N+](=O)[O-])o2)c1 [Example 56, N-(3-(isopropylcarbamoyl)phenyl)-5-nitrofuran-2-carboxamide]
18.3 | 20 to 80 | 23.9 | 4.38 | N-(4-fluoro-3-methylcarbomoylphenyl)-5-nitrofuran-2-carboxamide [Example 65]
